In US20040023884A1, “Biologically active peptides from functional domains of bactericidal/permeability-increasing protein and uses thereof” (priority 1993, published 2004):

Legend:
[1] = tested on: rough mutant E. coli J5 bacteria; assay: Radial diffusion bactericidal assay, E. coli J5; type: cell-based; settings: radial diffusion; for bactericidal activity (in words): E. coli J5; for pmol added to well to achieve a 30 mm^2 bactericidal zone, E. coli J5: PROBIT analysis, E. coli J5 (rough)
Summary of the method: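 Wells received 5 or 10 μL of BPI fragment, pre-incubated 3 h at 37 °C. The underlayer agarose carried washed log-phase organisms at 4×10^6 CFU/mL.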

[2] = 3H-heparin binding assay (affinity and capacity); settings: for Heparin Capacity: heparin bound at saturation; for Kd: read-out: Heparin Affinity
Summary of the method: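 Peptide fragments were bound to PVDF-membrane wells and incubated with 3H-heparin in blocking buffer for 1 h at 4 °C. After washing, bound radioactivity was quantified by liquid scintillation counting, with BSA background subtracted; rBPI23 served as positive control.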

[3] = tested on: E. coli 0111:B4 (smooth) bacteria; assay: Radial diffusion bactericidal assay, E. coli 0111:B4; type: cell-based; settings: radial diffusion; PROBIT analysis; E. coli O111:B4 (smooth)
[4] = tested on: Staphylococcus aureus; assay: Radial diffusion bactericidal assay, Staphylococcus aureus; type: cell-based; settings: radial diffusion; PROBIT analysis; S. aureus
[5] = In vitro heparin-mediated lengthening of APTT / clotting time of heparinized plasma; type: biochemical, human; settings: FIG. 12g
Experimental: In vitro, the effect of BPI combination functional domain peptides was determined on heparin-mediated lengthening of activated partial […] (APTT). The APTT is lengthened by the presence of endogenous or exogenous inhibitors of thrombin formation, such as therapeutically administered heparin. Thus, agents which neutralize the anti-coagulant effects of heparin will reduce the APTT measured by the test. Citrated human plasma (200 μL) was incubated for 1 minute at 37° C. with either 15 μL of diluent (0.15 M NaCl, 0.1 M Tris-HCl, pH 7.4) or 15 μL of the diluent also containing 25 μg/mL heparin (187 units/mg). Various concentrations (from 0.0 to 56 μg/mL) of rBPI23, rBPI21Δcys, or BPI combination peptides BPI.29 (the DIII homodimer) and BPI.30 (heterodimer DII+DIII) in a volume of 15 μL were added, followed immediately by 100 μL of thrombin reagent (Catalog No. 845-4, Sigma Chemical Co., St. Louis. MO). Clotting time ([…]) was measured using a BBL Fibrometer (Becton Dickenson Microbiology Systems, Cockeysville, Md.). […] FIG. 12e illustrates the results obtained with BPI.30 on a non-log scale.

[6] = tested on: zymosan-stimulated NO production by RAW 264.7 cells; assay: Zymosan-stimulated NO production by RAW 264.7 cells; type: cell-based, mouse
Experimental: (§1) An additional LPS neutralization screening assay for BPI functional domain peptides was developed using an assay for NO production in mouse cells treated with LPS (see Lorsbach et al., 1993, J. Biol. Chem. 268: 1908-1913). In this assay, mouse RAW 264.7 cells (ATCC Accession No. TIB71) were treated with bacterial LPS. The cells were incubated in 96-well plates and stimulated for 2 hours with E. coli 0113 LPS or zymosan, in the presence or absence of _-interferon, rLBP, fetal bovine serum (FBS) or normal human serum (NHS), or rBPI21Δcys. After this incubation, the cells were washed with fresh media and incubated overnight in media containing 10% FCS. The NO released from the cells accumulated in the media and spontaneously converted to nitrite. This nitrite was assayed in situ by the Griess reaction, as follows. The nitrite was reacted with the primary amine of an added sulfanilamide and formed a diazonium salt. This salt was then reacted with added naphthylethylenediamine to form a red azo-dyc. The Griess reaction was performed at room temperature in about 10 minutes. The amount of produced NO was estimated from a standard curve of Griess reaction products determined spectrophotometrically as Absorbance at a wavelength of 550 nm.

[7] = Lipid A binding competition with [125I]-rLBP; settings: for IC50: read-out: IC50 (inhibition of Lipid A binding of radiolabeled rLBP)
Experimental: A second binding assay was developed, wherein radiolabeled recombinant LPS binding protein ([^125I]-rLBP) was used instead of radiolabeled rBPI23 in competition experiments with BPI functional domain peptides BPI.2, BPI.3, BPI.4, BPI.5, BPI.7, BPI.13, BPI.14, BPI.29, BPI.30 and BPI.48, rBPI, rBPI21Δcys, and rLBP25 were included in these assays as controls. In these experiments, Lipid A was adsorbed to the wells at a concentration of 0.7 μg/mL in methanol. Incubation of radiolabeled rLBP (a total of 650,000 cpm and a specific activity of 3.45 μCi/μg) was performed for 2.5 hr at 37° C. in the presence of BPI peptides in a series of increasing concentrations. IC50 values (i.e., the concentration at which Lipid A binding of radiolabeled rLBP25 is inhibited to one half the value achieved in the absence of the peptide) are shown in accompanying Table XI.

[8] = tested on: LPS-stimulated NO production by RAW 264.7 cells; assay: LPS-stimulated NO production by RAW 264.7 cells; type: cell-based, mouse
Experimental: as §1

Molecule | bactericidal activity (in words) [1] | pmol added to well to achieve a 30 mm^2 bactericidal zone, E. coli J5 [1] | heparin binding capacity (in words) [2] | Heparin Capacity [2] [ng] | Kd [2] [nM] | pmol added to well to achieve a 30 mm^2 bactericidal zone, E. coli O111:B4 [3] | pmol added to well to achieve a 30 mm^2 bactericidal zone, S. aureus [4] | effect on the clotting time of heparinized blood (in words) [5] | inhibition of zymosan-stimulated NO production (in words) [6] | IC50 (inhibition of Lipid A binding of radiolabeled rLBP) [7] [µg/mL] | IC50 [7] [nM] | inhibition of LPS-stimulated NO production (in words) [8]
LQKELKRIKIPDYSDSFKIKHL [BPI.4] | little or no bactericidal activity | b (no detectable activity up to 5 μg/well) | low heparin binding capacity | 80.8 | 336 | b (no detectable activity up to 5 μg/well) | b (no detectable activity up to 5 μg/well) | less of a decrease in clotting times | not inhibited | – | – | –
GTAALQKELKRIKIPDYSDSFKIKHLGKGH [BPI.14] | little or no bactericidal activity | b (no detectable activity up to 5 μg/well) | low heparin binding capacity | 119.3 | 396 | b (no detectable activity up to 5 μg/well) | b (no detectable activity up to 5 μg/well) | less of a decrease in clotting times | not inhibited | – | – | –
rLBP25: LBP amino-terminal fragment, first 197 amino acids of lipopolysaccharide binding protein (protein) MGALARALPSILLALLLTSTPEALGANPGLVARITDKGLQYAAQEGLLALQSELLRITLPDFTGDLRIPHVGRGRYEFHSLNIHSCELLHSALRPVPGQGLSLSISDSSIRVQGRWKVRKSFFKLQGSFDVSVKGISISVNLLLGSESSGRPTVTASSCSSDIADVEVDMSGDLGWLLNLFHNQIESKFQKVLESRICEMIQKSVSSDLQPYLQTLPVTTEIDSFADIDYSLVEAPRATAQMLEVMFKGEIFHRNHRSPVTLLAAVMSLPEEHNKMVYFAISDYVFNTASLVYHEEGYLNFSITDEMIPPDSNIRLTTKSFRPFVPRLARLYPNMNLELQGSVPSAPLLNFSPGNLSVDPYMEIDAFVLLPSSSKEPVFRLSVATNVSATLTFNTSKITGFLKPGKVKVELKESKVGLFNAELLEALLNYYILNTFYPKFNDKLAEGFPLPLLKRVQLYDLGLQIHKDFLFLGANVQYMRV | – | – | – | – | – | – | – | less of a decrease in clotting times | No inhibition | 15 | 600 | inhibited in a concentration-dependent manner
rBPI: recombinant BPI holoprotein (SEQ ID NO:69) (protein) MRENMARGPCNAPRWVSLMVLVAIGTAVTAAVNPGVVVRISQKGLDYASQQGTAALQKELKRIKIPDYSDSFKIKHLGKGHYSFYSMDIREFQLPSSQISMVPNVGLKFSISNANIKISGKWKAQKRFLKMSGNFDLSIEGMSISADLKLGSNPTSGKPTITCSSCSSHINSVHVHISKSKVGWLIQLFHKKIESALRNKMNSQVCEKVTNSVSSKLQPYFQTLPVMTKIDSVAGINYGLVAPPATTAETLDVQMKGEFYSENHHNPPPFAPPVMEFPAAHDRMVYLGLSDYFFNTAGLVYQEAGVLKMTLRDDMIPKESKFRLTTKFFGTFLPEVAKKFPNMKIQIHVSASTPPHLSVQPTGLTFYPAVDVQAFAVLPNSSLASLFLIGMHTTGSMEVSAESNRLVGELKLDRLLLELKHSNIGPFPVELLQDIMNYIVPILVLPRVNEKLQKGFPLPTPARVQLYNVVLQPHQNFLLFGADVVYK | – | – | – | – | – | – | – | less of a decrease in clotting times | no significant inhibition | 0.65 | 13 | inhibited in a concentration-dependent manner
